Source: patent US20200155632A1, “COMPOSITION FOR TREATING AND PREVENTING MALE SEXUAL DISORDERS” (KOLINPHARMA S.P.A., priority 2017, published 2020)

Experiments:
diabetic rat = conditions: cited from earlier work
[1] = test system: subjects suffering from erectile dysfunction (from mild to moderate); conditions: 600 mg/daily, 26 subjects; cited from earlier work
[2] = test system: cGMP in ECV-304 cells (human vascular endothelium cells); assay: cGMP levels by ELISA in ECV-304 cells after treatment with Menix active ingredients and associations; assay type: cell-based; design: Average % deviation from control (cGMP levels): concentration or dose not given beside the values; conditions: for pM (cGMP), levels of expression of cGMP: 48 hours of treatment, average of n=3 biological replicates, concentrations of Table 3, control 82.1; for Average % deviation from control (cGMP levels): 48 hours, vs non-treated cells
Experimental: For this experiment, human vascular endothelium cells were selected (ECV-304). […] At this point, the cells were treated with trypsin and EDTA and were re-examined in appropriate culture flasks.
The cGMP levels were determined by ELISA assay, following the operating instructions given in the protocol supplied by the manufacturer (cGMP ELISA KIT—STA 505-5, Cloud Clone Corp), running the assay in the acetylated embodiment to increase the sensitivity thereof.
For the experiment, the ECV-304 cells were sowed in MW-6 and treated for 48 hours with the active ingredients of Menix and associations thereof. After the 48 hours had elapsed, the supernatants were collected and frozen at −80° C. until use. The untreated cells were used as a control.
The base levels of cGMP were determined by ELISA assay, following instructions supplied by the manufacturer (STA 505-5 Cell Biolabs Inc).
The results, expressed in terms of concentration (pM) of cGMP average±standard deviation (n=3 biological replicates), are set out in FIG. 3 and Table 4.

[3] = test system: rats with acute arteriogenic erectile dysfunction; conditions: 2% p/v in water for three weeks; cited from earlier work
[4] = oral administration; cited from earlier work
[5] = test system: subjects suffering from mild erectile dysfunction; conditions: 1.5 g daily for a month, oral, 24 subjects; cited from earlier work
[6] = Solubility tests of the active ingredients of Menix; assay type: physicochemical; conditions: tested in order: culture medium, water, DMSO, organic solvents
Description: Before being subjected to the cell assays, the active ingredients of Menix have been subjected to solubility tests to define the best solubilization agent for each of the assays.

[7] = test system: rats affected by type-1 diabetes; conditions: 400 mg/kg/daily; cited from earlier work
aged rats = conditions: dissolved 1% in water; cited from earlier work
ICAM-1 and P-selectine = conditions: 2 g daily, adjuvant to sildenafil twice weekly; cited from earlier work

SMILES: O=C(O)CCCCC1CCSS1 (racemic) [α-LIPOIC ACID, alpha-lipoic acid]
- Levels of endothelial NOS and neuron NOS (diabetic rat; 65 mg/kg/daily for 15 days): increase in levels of endothelial NOS and of neuron NOS
- Corpus cavernosum dysfunctions (diabetic rat; 300 mg/kg/daily for a month): prevented and ameliorated corpus cavernosum dysfunctions
- Indicators connected to erectile dysfunction (IIEF-5) [1]: significant improvement
- pM (cGMP), levels of expression of cGMP [2]: 60 pM
- Average % deviation from control (cGMP levels) [2]: −26.92%

SMILES: NC(=O)NCCCC(N)C(=O)O (centres unmarked) [CITRULLINE, 2-amino-5-(carbamoylamino)pentanoic acid]
- Erectile function [3]: significant improvement in erectile function
- NO plasmatic levels [3]: increasing NO plasmatic levels
- Blood levels of L-arginine compared with basic values [4]: increase in the blood levels of L-arginine
- pM (cGMP), levels of expression of cGMP [2]: 140 pM
- Average % deviation from control (cGMP levels) [2]: 70.52%
- Erectile function on EHS and IIEF-5 [5]: increase in erectile function
- Solvent in which the active ingredient has been solubilized [6]: Culture medium

SMILES: CC(=O)O[C@H](CC(=O)[O-])C[N+](C)(C)C [N-ACETYL-L-CARNITINE, (R)-3-acetyloxy-4-trimethylammonio-butanoate]
- pM (cGMP), levels of expression of cGMP [2]: 22 pM
- Average % deviation from control (cGMP levels) [2]: −73.20%
- Solvent in which the active ingredient has been solubilized [6]: Water

SMILES: NCCS(=O)(=O)O [TAURINE, 2-aminoethanesulphonic acid]
- Levels of cGMP and eNOS in the corpus cavernosum [7]: increased the levels of both cGMP and eNOS
- Pressure inside the corpus cavernosum [7]: increase in pressure inside the corpus cavernosum
- Levels of NOS and NO in the rat's penis (aged rats): increases levels of both NOS and NO
- Secretion of androgens, testosterone (aged rats): increases the secretion of androgens and in particular of testosterone
- Sperm quality (count, vitality, motility) (aged rats): improves sperm quality
- pM (cGMP), levels of expression of cGMP [2]: 137 pM
- Average % deviation from control (cGMP levels) [2]: 66.87%
- Solvent in which the active ingredient has been solubilized [6]: Culture medium

SMILES: NCC(=O)[O-].NCC(=O)[O-].[Zn+2] [Zn, zinc bisglycinate]
- pM (cGMP), levels of expression of cGMP [2]: 90 pM
- Average % deviation from control (cGMP levels) [2]: 9.62%

SMILES: CCC(=O)O[C@H](CC(=O)[O-])C[N+](C)(C)C [propionyl-L-carnitine]
- Endogenous levels of endothelial dysfunction markers such as ICAM-1 and P-selectine (ICAM-1 and P-selectine): significant reduction
